Data set [1] addresses BDNF/NT-3 growth factors receptor (Homo sapiens) (UniProt Q16620). The data set can be described thus: Inhibition of TRKB (unknown origin) at 1 uM.
Data set [2] has as its system BMDM. The data set can be described thus: Induction of repolarization of M2 like macrophage into M1 phenotype in female C57BL/6 mouse BMDM cells assessed as increase in number of M1 macrophages by measuring increase in Nos2 expression at 10 to 100 nM stimulated with mouse IL4/IL-13 for 24 hrs followed by compound addition and measured after 24 hrs by immunofluorescence analysis. Format: functional, cell-based. To be noted: dose 10-100 nM.

The target of data set [3] is NT-3 growth factor receptor (Homo sapiens) (UniProt Q16288). The data set can be described thus: Inhibition of TRKC (unknown origin) at 1 uM.
Data set [4] addresses T1, Macrophage colony-stimulating factor 1 receptor (Mus musculus) (UniProt P09581).
T1 sequence (whole entry): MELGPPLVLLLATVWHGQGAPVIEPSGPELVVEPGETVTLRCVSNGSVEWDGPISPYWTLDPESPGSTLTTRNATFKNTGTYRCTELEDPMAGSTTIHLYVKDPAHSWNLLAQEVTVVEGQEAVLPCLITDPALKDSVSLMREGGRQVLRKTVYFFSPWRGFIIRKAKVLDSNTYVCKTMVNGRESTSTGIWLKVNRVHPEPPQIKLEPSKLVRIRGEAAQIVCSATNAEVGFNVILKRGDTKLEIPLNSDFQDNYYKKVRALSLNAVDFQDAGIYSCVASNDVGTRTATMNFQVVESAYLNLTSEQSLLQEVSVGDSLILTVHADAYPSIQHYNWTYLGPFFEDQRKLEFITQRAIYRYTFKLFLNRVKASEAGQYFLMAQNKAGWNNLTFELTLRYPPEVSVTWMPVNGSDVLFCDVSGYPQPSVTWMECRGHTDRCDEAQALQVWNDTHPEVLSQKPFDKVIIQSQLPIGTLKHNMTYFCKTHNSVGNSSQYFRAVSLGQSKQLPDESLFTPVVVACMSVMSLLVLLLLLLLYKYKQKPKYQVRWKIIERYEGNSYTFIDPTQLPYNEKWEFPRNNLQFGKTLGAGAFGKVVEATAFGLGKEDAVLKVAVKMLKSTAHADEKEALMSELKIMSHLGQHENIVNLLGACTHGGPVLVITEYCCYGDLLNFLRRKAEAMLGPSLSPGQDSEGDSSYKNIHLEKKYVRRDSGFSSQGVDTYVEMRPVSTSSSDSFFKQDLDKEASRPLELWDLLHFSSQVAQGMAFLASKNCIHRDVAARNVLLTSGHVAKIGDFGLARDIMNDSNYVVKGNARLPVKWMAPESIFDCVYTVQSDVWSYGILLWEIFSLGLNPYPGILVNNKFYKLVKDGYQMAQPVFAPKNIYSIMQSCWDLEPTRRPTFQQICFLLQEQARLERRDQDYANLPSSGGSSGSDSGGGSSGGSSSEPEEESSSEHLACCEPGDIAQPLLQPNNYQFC
The data set can be described thus: Induction of thermal stabilization of CSF-1R in female C57BL/6 mouse BMDM cells assessed as increase in melting temperature at 100 nM incubated for 1 hrs under 52 to 68 degreeC by CETSA. The format is cell-based.

In data set [5] the test system is Colorectal cancer organoid. The data set can be described thus: Antitumor activity against patient derived CRC organoids cocultured with IL-4/13 stimulated M2 macrophages assessed as reduction in number of organoids at 10 to 100 nM incubated for 72 hrs. The note with it: Homo sapiens, Colorectum, dose 10-100 nM. Format: functional, tissue-based.
The nature of data set [6]: AUC (0 to t) in Sprague-Dawley rat at 10 mg/kg, po. Format: ADME, organism-based. To be noted: in vivo.
In data set [7] the test system is BMDM. The data set can be described thus: Induction of repolarization of M2 like macrophage into M1 phenotype in female C57BL/6 mouse BMDM cells assessed as decrease in Mrc1 mRNA expression at 10 to 100 nM stimulated with mouse IL4/IL-13 for 24 hrs followed by compound addition and measured after 24 hrs by qPCR analysis. The format is functional, cell-based. To be noted: dose 10-100 nM.

For data set [8], the system named is BMDM. The data set can be described thus: Induction of repolarization of M2 like macrophage into M1 phenotype in female C57BL/6 mouse BMDM cells assessed as increase in Il6 mRNA expression at 10 to 100 nM stimulated with mouse IL4/IL-13 for 24 hrs followed by compound addition and measured after 24 hrs by qPCR analysis. Format: functional, cell-based. The note with it: dose 10-100 nM. (Real-time PCR tracks product formation cycle by cycle.)

Data set [9] has as its system MC-38. The data set can be described thus: Antitumor activity against mouse MC38 cells allografted in C57BL/6 mouse model assessed as reduction in tumor volume at 20 mg/kg, ip administered once daily for 14 days relative to control. Format: functional. Further details: scale not given: the % may be the effect or the level left. To be noted: time 14 day.
In data set [10] the test system is MC-38. The data set can be described thus: Induction of apoptosis in mouse MC38 cells assessed as late apoptotic cells at 10 nM by Annexin V/PI staining based flow cytometric analysis (reference value: 0.85 %). Format: functional. In general terms: Flow cytometry measures light scatter and fluorescence of single cells or particles in a stream.
Data set [11] deals with MC-38. The data set is described as follows: Antitumor activity against mouse MC38 cells allografted in C57BL/6 mouse model assessed as reduction in tumor weight at 20 mg/kg, ip administered once daily for 14 days relative to control. Format: functional. On the set-up: scale not given: the % may be the effect or the level left. The note with it: time 14 day.
Data set [12] has as its target T1, Macrophage colony-stimulating factor 1 receptor (Mus musculus). The data set can be described thus: Binding affinity to CSF-1R in female C57BL/6 mouse BMDM cells assessed as decrease in protein solubility at 100 nM incubated for 1 hrs in presence of 7 to 15 % of acetone/ethanol/acetic acid mixture by SIP assay. The format is cell-based.
Data set [13] relates to BMDM. The data set can be described thus: Induction of repolarization of M2 like macrophage into M1 phenotype in female C57BL/6 mouse BMDM cells assessed as increase in Nos2 mRNA expression at 10 to 100 nM stimulated with mouse IL4/IL-13 for 24 hrs followed by compound addition and measured after 24 hrs by qPCR analysis. Format: functional, cell-based. To be noted: dose 10-100 nM.

Data set [14] relates to MC-38. The data set can be described thus: Antitumor activity against mouse MC38 cells allografted in C57BL/6 mouse model assessed as upregulation of Nos2 mRNA expression in tumor at 10 to 20 mg/kg, ip administered once daily for 14 days by qPCR analysis. The note with it: dose 10-20 mg/kg, time 14.0 day. Format: functional, organism-based.
In data set [15] the test system is MC-38. The data set can be described thus: Antitumor activity against mouse MC38 cells allografted in C57BL/6 mouse model assessed as downregulation of Arg1 mRNA expression in tumor at 10 to 20 mg/kg, ip administered once daily for 14 days by qPCR analysis. The format is functional, organism-based. The note with it: dose 10-20 mg/kg, time 14.0 day.
For data set [16], the system named is MC-38. The data set is described as follows: Induction of apoptosis in mouse MC38 cells cocultured with condition medium of M2 macrophages assessed as late apoptotic cells at 100 nM by Annexin V/PI staining based flow cytometric analysis (reference value: 1.66 %). Format: functional.
For data set [17], the system named is MC-38. The data set is described as follows: Induction of apoptosis in mouse MC38 cells cocultured with condition medium of M2 macrophages assessed as early apoptotic cells at 10 nM by Annexin V/PI staining based flow cytometric analysis (reference value: 3.16 %). The format is functional.
In data set [18] the test system is MC-38. The data set can be described thus: Induction of apoptosis in mouse MC38 cells cocultured with condition medium of M2 macrophages assessed as early apoptotic cells at 100 nM by Annexin V/PI staining based flow cytometric analysis (reference value: 3.16 %). Format: functional.
A short description of data set [19]: AUC (0 to infinity) in Sprague-Dawley rat at 1 mg/kg, iv. Format: ADME, organism-based. The note with it: in vivo.
The test system of data set [20] is MC-38. The data set is described as follows: Induction of apoptosis in mouse MC38 cells cocultured with condition medium of M2 macrophages assessed as early apoptotic cells at 30 nM by Annexin V/PI staining based flow cytometric analysis (reference value: 3.16 %). Format: functional.
The nature of data set [21]: Cmax in Sprague-Dawley rat at 10 mg/kg, po. To be noted: in vivo. Format: ADME, organism-based.
Data set [22] relates to MC-38. The data set is described as follows: Inhibition of cell viability in mouse MC38 cells at 10 to 100 nM by MTT assay. Format: functional, cell-based. To be noted: dose 10-100 nM.

What is called AUC(0-t) is exposure summed from dosing to a finite time, without extrapolation to infinity. One may read the AUC(0-inf) as the area under the concentration-time curve extrapolated to infinity. One may read the Cmax as the highest concentration seen after dosing.

The source made the active and inactive calls. No cut-off for these calls is given here.

NT-3 growth factor receptor (Homo sapiens), sequence (Q16288 32-839 limits assumed): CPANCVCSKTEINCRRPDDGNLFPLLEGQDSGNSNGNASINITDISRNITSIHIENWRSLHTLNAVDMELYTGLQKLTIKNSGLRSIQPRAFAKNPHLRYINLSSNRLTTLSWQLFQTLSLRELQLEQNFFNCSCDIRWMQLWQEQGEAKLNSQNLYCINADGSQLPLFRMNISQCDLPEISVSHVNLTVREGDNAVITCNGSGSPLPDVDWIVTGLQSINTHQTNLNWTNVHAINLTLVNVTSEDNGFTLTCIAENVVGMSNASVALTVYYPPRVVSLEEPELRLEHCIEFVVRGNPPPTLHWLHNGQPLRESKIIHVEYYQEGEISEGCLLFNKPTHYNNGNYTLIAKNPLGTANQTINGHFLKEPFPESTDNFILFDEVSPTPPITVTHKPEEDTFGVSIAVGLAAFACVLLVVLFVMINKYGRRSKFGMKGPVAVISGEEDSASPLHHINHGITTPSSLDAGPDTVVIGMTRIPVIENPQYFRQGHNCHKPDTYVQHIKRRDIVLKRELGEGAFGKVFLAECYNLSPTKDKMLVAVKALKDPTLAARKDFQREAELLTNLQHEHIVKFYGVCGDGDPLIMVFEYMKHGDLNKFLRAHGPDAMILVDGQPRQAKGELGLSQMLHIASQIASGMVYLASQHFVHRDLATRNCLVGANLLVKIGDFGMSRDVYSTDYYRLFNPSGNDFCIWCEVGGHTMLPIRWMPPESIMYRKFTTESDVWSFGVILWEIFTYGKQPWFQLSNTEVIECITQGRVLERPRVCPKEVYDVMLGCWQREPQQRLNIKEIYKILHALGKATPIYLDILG
BDNF/NT-3 growth factors receptor (Homo sapiens), sequence (Q16620 32-822 limits assumed): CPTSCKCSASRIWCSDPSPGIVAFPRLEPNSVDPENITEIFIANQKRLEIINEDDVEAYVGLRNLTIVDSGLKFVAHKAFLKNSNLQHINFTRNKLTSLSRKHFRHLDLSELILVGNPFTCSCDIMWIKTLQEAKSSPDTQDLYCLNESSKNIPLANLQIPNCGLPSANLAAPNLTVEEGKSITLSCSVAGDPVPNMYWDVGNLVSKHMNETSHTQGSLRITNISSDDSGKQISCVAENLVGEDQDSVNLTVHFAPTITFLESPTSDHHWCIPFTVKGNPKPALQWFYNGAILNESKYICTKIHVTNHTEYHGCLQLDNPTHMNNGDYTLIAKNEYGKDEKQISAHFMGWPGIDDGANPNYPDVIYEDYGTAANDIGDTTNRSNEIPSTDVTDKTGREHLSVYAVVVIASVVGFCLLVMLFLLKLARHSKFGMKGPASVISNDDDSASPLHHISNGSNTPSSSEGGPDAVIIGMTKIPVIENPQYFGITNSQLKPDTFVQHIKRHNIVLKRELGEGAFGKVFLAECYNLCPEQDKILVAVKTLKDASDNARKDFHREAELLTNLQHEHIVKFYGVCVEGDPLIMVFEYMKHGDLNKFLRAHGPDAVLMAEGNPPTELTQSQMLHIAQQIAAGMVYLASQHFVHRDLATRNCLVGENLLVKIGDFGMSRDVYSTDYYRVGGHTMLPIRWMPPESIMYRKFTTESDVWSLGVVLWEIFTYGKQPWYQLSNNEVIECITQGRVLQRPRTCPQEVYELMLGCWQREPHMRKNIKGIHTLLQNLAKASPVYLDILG

With `Cc1nc(NC(=O)N[C@@H]2CCCC[C@H]2O)ccc1Oc1c[nH]c2ncc(Cl)cc12`, the inhibition entry in data set [1] and in [3] was “Active” throughout. Also, the result in data set [2], in data set [4], in data set [5], in data set [7], in data set [8] and in data set [12] was Active. For the same molecule, the result in [13], in data set [14] and in data set [15] was Active. Also, the AUC(0-t) in data set [6] came out at 4170 ng·h/mL. Also, the Activity is recorded as 54% in data set [9]; 0.72% in data set [10]; 56% in data set [11]; 5.67% in [16]; 6.15% in data set [17]; 19.91% in [18]. The Activity in [20] was 13.61%. This molecule also yielded an AUC(0-inf) in [19] of 527 ng·h/mL. In data set [21], this molecule yielded a Cmax of 1580 ng/mL. Further, the inhibition entry in data set [22] is “Minimal_effect”.

Source of the values: ChEMBL document CHEMBL6103622 (J Med Chem, 2025).
